Laboratory results: ChEMBL document CHEMBL4507260 (2021)

Assays:
Conditions in all cases: Compound concentration 1000.0 nM
[1] = target: Tyrosine-protein kinase FRK (Homo sapiens) (UniProt P42685)
[2] = target: RAC-alpha serine/threonine-protein kinase (Homo sapiens) (UniProt P31749)
[3] = target: Serine/threonine-protein kinase PLK4 (Homo sapiens) (UniProt O00444)
[4] = target: Tyrosine-protein kinase ABL1 (Homo sapiens) (UniProt P00519)
[5] = target: Tyrosine-protein kinase JAK2 (Homo sapiens) (UniProt O60674)
[6] = target: RAC-beta serine/threonine-protein kinase (Homo sapiens) (UniProt P31751)
[7] = target: Fibroblast growth factor receptor 1 (Homo sapiens) (UniProt P11362)
[8] = target: Tyrosine-protein kinase Lyn (Homo sapiens) (UniProt P07948)
[9] = target: Ankyrin repeat and protein kinase domain-containing protein 1 (Homo sapiens) (UniProt Q8NFD2)
[10] = target: Casein kinase I isoform gamma-1 (Homo sapiens) (UniProt Q9HCP0)
[11] = target: Cyclin-dependent kinase 19 (Homo sapiens) (UniProt Q9BWU1)
[12] = target: Calcium/calmodulin-dependent protein kinase type 1D (Homo sapiens) (UniProt Q8IU85)
[13] = target: MAP kinase-interacting serine/threonine-protein kinase 1 (Homo sapiens) (UniProt Q9BUB5)
[14] = system: Tyrosine-protein kinase ABL1 (Homo sapiens), P00519 [F317I]
[15] = target: Epidermal growth factor receptor (Homo sapiens) (UniProt P00533)
[16] = target: Death-associated protein kinase 3 (Homo sapiens) (UniProt O43293)
[17] = target: Mitogen-activated protein kinase 12 (Homo sapiens) (UniProt P53778)
[18] = system: Epidermal growth factor receptor (Homo sapiens), P00533 [UNDEFINED MUTATION]
[19] = target: Proto-oncogene tyrosine-protein kinase receptor Ret (Homo sapiens) (UniProt P07949)
[20] = target: Tyrosine-protein kinase receptor TYRO3 (Homo sapiens) (UniProt Q06418)
[21] = system: Epidermal growth factor receptor (Homo sapiens), P00533 [UNDEFINED MUTATION]; remark: listed apart in the source
[22] = system: Phosphatidylinositol 4,5-bisphosphate 3-kinase catalytic subunit alpha isoform (Homo sapiens), P42336 [H1047L]
[23] = target: Ribosomal protein S6 kinase beta-1 (Homo sapiens) (UniProt P23443)
[24] = system: Tyrosine-protein kinase ABL1 (Homo sapiens), P00519 [F317L]
[25] = target: Serine/threonine-protein kinase LATS1 (Homo sapiens) (UniProt O95835)
[26] = target: Leukocyte tyrosine kinase receptor (Homo sapiens) (UniProt P29376)
[27] = system: Phosphatidylinositol 4,5-bisphosphate 3-kinase catalytic subunit alpha isoform (Homo sapiens), P42336 [H1047Y]
[28] = system: Hepatocyte growth factor receptor (Homo sapiens), P08581 [M1250T]
[29] = target: Mitogen-activated protein kinase 15 (Homo sapiens) (UniProt Q8TD08)
[30] = target: NUAK family SNF1-like kinase 2 (Homo sapiens) (UniProt Q9H093)
[31] = target: Ribosomal protein S6 kinase alpha-1 (Homo sapiens) (UniProt Q15418)
[32] = target: Serine/threonine-protein kinase Nek6 (Homo sapiens) (UniProt Q9HC98)
[33] = target: Serine/threonine-protein kinase D3 (Homo sapiens) (UniProt O94806)
[34] = target: Serine/threonine-protein kinase Nek1 (Homo sapiens) (UniProt Q96PY6)
[35] = target: Serine/threonine-protein kinase BRSK1 (Homo sapiens) (UniProt Q8TDC3)
[36] = system: Tyrosine-protein kinase ABL1 (Homo sapiens), P00519 [H396P]
[37] = target: Mitogen-activated protein kinase 13 (Homo sapiens) (UniProt O15264)
[38] = target: Serine/threonine-protein kinase 16 (Homo sapiens) (UniProt O75716)
[39] = target: STE20/SPS1-related proline-alanine-rich protein kinase (Homo sapiens) (UniProt Q9UEW8)
[40] = target: Serine/threonine-protein kinase Nek7 (Homo sapiens) (UniProt Q8TDX7)
[41] = target: Ephrin type-B receptor 4 (Homo sapiens) (UniProt P54760)
[42] = target: Serine/threonine-protein kinase WNK2 (Homo sapiens) (UniProt Q9Y3S1)
[43] = target: Mitogen-activated protein kinase kinase kinase 13 (Homo sapiens) (UniProt O43283)
[44] = target: Serine/threonine-protein kinase PLK2 (Homo sapiens) (UniProt Q9NYY3)
[45] = target: Atypical kinase COQ8A, mitochondrial (Homo sapiens) (UniProt Q8NI60)

Measured: residual activity

Sequence of Epidermal growth factor receptor (Homo sapiens), P00533 [UNDEFINED MUTATION] (P00533 whole entry, looked up, stated change not applied, canonical isoform): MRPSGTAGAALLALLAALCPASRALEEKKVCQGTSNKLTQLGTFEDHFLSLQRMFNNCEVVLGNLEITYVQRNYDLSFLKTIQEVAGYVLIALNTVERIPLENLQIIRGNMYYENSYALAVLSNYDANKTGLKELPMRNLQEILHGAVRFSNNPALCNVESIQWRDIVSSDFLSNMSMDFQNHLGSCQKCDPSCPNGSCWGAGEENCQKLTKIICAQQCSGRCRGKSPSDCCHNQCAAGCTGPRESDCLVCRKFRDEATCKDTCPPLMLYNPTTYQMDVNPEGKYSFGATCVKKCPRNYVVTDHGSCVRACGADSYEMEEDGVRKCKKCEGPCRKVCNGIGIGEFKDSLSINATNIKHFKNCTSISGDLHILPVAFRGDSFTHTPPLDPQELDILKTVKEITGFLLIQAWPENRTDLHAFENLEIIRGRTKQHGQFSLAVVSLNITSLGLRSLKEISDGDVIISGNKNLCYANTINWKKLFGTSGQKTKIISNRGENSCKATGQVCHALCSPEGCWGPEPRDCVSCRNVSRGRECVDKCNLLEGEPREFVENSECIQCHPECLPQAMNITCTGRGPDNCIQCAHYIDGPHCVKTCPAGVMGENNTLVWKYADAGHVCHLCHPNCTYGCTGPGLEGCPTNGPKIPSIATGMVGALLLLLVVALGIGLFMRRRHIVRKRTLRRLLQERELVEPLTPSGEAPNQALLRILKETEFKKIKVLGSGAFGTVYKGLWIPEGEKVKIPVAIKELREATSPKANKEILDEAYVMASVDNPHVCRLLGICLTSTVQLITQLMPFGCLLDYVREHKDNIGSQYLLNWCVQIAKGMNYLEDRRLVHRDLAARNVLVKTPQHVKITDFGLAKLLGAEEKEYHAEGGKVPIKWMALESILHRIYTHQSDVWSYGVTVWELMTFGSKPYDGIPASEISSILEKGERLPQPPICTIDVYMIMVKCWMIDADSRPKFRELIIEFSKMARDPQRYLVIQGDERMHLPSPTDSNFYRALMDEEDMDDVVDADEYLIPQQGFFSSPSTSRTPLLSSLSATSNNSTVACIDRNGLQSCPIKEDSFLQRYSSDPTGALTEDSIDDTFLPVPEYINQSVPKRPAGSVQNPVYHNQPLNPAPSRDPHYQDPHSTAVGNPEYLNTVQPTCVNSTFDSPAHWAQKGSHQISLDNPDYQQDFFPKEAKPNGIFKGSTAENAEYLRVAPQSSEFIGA
Sequence of Calcium/calmodulin-dependent protein kinase type 1D (Homo sapiens) (Q8IU85 whole entry, looked up): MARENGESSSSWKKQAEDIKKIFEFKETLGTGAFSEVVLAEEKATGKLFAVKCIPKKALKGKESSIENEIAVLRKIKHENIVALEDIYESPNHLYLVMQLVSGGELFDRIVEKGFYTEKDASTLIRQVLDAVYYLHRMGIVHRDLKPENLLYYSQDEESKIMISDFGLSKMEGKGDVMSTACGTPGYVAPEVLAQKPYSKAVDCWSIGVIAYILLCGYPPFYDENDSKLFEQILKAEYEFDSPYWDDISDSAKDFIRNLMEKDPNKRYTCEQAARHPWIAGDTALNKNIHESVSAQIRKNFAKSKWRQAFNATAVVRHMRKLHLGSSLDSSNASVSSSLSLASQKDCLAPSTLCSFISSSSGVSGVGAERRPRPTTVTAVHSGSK
Sequence of Mitogen-activated protein kinase 15 (Homo sapiens) (Q8TD08 whole entry): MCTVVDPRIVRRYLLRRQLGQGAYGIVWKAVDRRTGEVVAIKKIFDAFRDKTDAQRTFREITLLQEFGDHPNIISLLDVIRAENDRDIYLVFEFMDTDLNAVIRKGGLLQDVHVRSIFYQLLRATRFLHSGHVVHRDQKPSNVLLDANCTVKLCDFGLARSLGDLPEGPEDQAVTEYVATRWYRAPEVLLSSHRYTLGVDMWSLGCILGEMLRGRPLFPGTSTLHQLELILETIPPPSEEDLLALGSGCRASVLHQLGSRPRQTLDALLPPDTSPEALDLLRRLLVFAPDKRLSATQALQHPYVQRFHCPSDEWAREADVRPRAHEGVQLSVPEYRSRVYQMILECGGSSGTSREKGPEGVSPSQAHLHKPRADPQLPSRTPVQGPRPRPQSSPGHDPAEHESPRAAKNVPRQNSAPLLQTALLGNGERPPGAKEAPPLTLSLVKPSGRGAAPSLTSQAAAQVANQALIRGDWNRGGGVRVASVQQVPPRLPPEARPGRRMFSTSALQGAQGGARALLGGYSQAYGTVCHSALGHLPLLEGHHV
Sequence of Tyrosine-protein kinase Lyn (Homo sapiens) (P07948 2-512 limits assumed): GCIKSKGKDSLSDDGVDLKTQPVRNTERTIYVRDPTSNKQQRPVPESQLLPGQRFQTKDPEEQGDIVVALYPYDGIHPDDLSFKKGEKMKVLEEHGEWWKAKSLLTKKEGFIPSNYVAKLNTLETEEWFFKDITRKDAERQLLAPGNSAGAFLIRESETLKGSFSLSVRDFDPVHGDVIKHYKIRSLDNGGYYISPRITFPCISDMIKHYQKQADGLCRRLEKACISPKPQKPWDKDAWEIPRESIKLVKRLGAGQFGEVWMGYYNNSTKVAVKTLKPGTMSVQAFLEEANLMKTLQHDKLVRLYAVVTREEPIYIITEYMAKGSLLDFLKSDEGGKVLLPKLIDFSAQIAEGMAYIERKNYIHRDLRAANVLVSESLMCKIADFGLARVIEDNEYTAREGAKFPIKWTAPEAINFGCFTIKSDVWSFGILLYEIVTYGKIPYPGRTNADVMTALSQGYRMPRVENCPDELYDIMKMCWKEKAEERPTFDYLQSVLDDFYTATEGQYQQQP
Sequence of Mitogen-activated protein kinase kinase kinase 13 (Homo sapiens) (O43283 whole entry): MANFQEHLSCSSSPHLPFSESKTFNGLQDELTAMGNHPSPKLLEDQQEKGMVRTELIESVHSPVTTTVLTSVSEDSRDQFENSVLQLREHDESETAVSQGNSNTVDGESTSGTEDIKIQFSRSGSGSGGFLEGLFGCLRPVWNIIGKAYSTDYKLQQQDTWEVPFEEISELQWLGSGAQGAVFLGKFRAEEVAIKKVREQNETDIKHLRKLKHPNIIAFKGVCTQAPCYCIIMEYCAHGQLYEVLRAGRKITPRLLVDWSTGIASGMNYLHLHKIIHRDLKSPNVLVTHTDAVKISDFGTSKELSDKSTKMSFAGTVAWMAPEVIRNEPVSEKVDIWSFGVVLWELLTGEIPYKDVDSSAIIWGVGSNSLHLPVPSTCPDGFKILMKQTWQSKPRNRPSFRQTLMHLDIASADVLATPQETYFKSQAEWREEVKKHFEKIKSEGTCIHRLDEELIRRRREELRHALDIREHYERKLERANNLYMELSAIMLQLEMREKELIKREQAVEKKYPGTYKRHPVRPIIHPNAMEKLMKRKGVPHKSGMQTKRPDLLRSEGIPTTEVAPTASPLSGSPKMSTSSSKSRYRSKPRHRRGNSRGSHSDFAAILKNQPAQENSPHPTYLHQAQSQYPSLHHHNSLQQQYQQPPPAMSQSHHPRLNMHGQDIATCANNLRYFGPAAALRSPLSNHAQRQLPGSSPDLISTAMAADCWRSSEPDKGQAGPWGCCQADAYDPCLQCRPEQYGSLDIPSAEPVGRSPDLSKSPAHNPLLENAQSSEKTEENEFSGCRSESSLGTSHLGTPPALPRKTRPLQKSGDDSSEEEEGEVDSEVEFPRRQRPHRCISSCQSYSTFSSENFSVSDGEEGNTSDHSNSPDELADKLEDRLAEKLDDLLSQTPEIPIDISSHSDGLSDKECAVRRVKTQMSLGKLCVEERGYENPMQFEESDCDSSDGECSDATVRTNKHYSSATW
Sequence of Serine/threonine-protein kinase PLK4 (Homo sapiens) (O00444 whole entry): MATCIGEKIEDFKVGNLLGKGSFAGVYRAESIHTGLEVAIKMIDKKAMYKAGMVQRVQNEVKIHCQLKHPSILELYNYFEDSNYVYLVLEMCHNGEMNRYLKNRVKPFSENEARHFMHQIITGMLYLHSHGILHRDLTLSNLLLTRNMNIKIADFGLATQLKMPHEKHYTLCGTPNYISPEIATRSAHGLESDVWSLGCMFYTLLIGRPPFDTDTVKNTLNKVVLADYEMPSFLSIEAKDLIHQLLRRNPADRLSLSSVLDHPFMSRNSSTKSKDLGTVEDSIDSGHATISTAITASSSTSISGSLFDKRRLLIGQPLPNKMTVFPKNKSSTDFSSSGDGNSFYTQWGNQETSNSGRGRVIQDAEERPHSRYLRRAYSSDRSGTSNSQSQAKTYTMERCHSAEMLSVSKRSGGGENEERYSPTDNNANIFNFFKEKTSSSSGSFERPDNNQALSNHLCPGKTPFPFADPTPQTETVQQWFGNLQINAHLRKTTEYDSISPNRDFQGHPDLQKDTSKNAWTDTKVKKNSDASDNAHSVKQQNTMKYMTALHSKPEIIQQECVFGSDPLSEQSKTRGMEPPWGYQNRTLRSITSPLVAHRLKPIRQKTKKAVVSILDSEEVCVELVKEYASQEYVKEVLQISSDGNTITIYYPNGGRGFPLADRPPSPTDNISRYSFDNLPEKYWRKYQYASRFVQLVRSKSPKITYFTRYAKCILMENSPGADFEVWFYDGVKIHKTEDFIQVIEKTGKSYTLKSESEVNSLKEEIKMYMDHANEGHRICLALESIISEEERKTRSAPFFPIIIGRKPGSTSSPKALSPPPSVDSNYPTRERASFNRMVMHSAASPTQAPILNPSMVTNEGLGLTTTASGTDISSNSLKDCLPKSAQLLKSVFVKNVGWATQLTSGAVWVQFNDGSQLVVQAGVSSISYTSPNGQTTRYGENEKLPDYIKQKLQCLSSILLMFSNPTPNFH
Sequence of Serine/threonine-protein kinase Nek7 (Homo sapiens) (Q8TDX7 whole entry, looked up): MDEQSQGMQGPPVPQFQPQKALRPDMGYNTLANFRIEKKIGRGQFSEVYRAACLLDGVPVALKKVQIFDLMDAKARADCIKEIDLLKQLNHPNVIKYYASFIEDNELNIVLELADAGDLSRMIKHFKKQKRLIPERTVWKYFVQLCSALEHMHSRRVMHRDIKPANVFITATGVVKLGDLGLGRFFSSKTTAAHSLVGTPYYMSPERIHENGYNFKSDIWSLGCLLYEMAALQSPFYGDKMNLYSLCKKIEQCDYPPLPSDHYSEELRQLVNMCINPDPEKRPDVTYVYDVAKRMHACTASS

c1ccc(N2CCN(Cc3nc4ccccc4[nH]3)CC2)nc1 [ABT-724]
inactive: [1] 100% | [2] 90% | [3] 99% | [4] 100% | [5] 100% | [6] 100% | [7] 100% | [8] 100% | [9] 100% | [10] 100% | [11] 87% | [12] 96% | [13] 91% | [14] 100% | [15] 99% | [16] 91% | [17] 74% | [18] 90% | [19] 100% | [20] 93% | [21] 100% | [22] 100% | [23] 97% | [24] 100% | [25] 100% | [26] 100% | [27] 79% | [28] 100% | [29] 100% | [30] 100% | [31] 100% | [32] 100% | [33] 100% | [34] 100% | [35] 91% | [36] 100% | [37] 100% | [38] 87% | [39] 100% | [40] 100% | [41] 100% | [42] 100% | [43] 86% | [44] 100% | [45] 98%

CSc1cccnc1N1CCN(Cc2nc3ccccc3[nH]2)CC1 [A-769]
inactive: [1] 92% | [2] 100% | [3] 84% | [4] 78% | [5] 65% | [6] 98% | [7] 100% | [8] 95% | [9] 92% | [10] 100% | [11] 96% | [12] 100% | [13] 98% | [14] 74% | [15] 100% | [16] 100% | [17] 98% | [18] 100% | [19] 94% | [20] 100% | [21] 100% | [22] 87% | [23] 87% | [24] 100% | [25] 100% | [26] 89% | [27] 100% | [28] 98% | [29] 82% | [30] 100% | [31] 100% | [32] 98% | [33] 100% | [34] 100% | [35] 100% | [36] 77% | [37] 100% | [38] 100% | [39] 100% | [40] 100% | [41] 100% | [42] 100% | [43] 82% | [44] 71% | [45] 100%
